Reference: BindingDB's records for doi:10.1016/j.bmc.2016.11.012 (China Pharmaceutical University, 2017)

Experiment: Inhibition of rabbit thrombin-induced platelet aggregation in rabbit platelet-rich plasma preincubated with rabbit liver microsomes for 4 hrs followed by addition to platelet

IC50 [µM] | SMILES
> 1000 | CC(C)(C)OC(=O)/N=C(\N)c1ccc(CC2c3nc4cc(C5(C(=O)N6CCCC6)CCCC5)ccc4n3CCN2C(=O)OC(C)(C)C)cc1 (stereo unspecified)
8.16 | CC(C)(C)OC(=O)/N=C(\N)c1ccc(CC2NCCn3c2nc2cc(C4(C(=O)N5CCCC5)CCCC4)ccc23)cc1 (stereo unspecified)
91.2 | N/C(=N\C(=O)OCc1ccccc1)c1ccc(CC2NCCn3c2nc2cc(C4(C(=O)N5CCCC5)CCCC4)ccc23)cc1 (stereo unspecified)
25.3 | CCCCCCOC(=O)/N=C(\N)c1ccc(CC2NCCn3c2nc2cc(C4(C(=O)N5CCCC5)CCCC4)ccc23)cc1 (stereo unspecified)
> 1000 | N/C(=N\C(=O)OCc1ccccc1)c1ccc(CC2c3nc4cc(C5(C(=O)N6CCCC6)CCCC5)ccc4n3CCN2C(=O)OCc2ccccc2)cc1 (stereo unspecified)
164 | CC(C)COC(=O)/N=C(\N)c1ccc(CC2NCCn3c2nc2cc(C4(C(=O)N5CCCC5)CCCC4)ccc23)cc1 (stereo unspecified)
> 1000 | CC(C)COC(=O)/N=C(\N)c1ccc(CC2c3nc4cc(C5(C(=O)N6CCCC6)CCCC5)ccc4n3CCN2C(=O)OCC(C)C)cc1 (stereo unspecified)
0.554 | CCCCCCOC(=O)N=C(N)c1ccc(NCc2nc3cc(C(=O)N(CCC(=O)OCC)c4ccccn4)ccc3n2C)cc1 [BIBR-1048]
91.5 | CCCCCCOC(=O)/N=C(\N)c1ccc(CC2c3nc4cc(C5(C(=O)N6CCCC6)CCCC5)ccc4n3CCN2C(=O)OCCCCCC)cc1 (stereo unspecified)
88.2 | CCOC(=O)/N=C(\N)c1ccc(CC2NCCn3c2nc2cc(C4(C(=O)N5CCCC5)CCCC4)ccc23)cc1 (stereo unspecified)

SMILES | IC50 [µM]
Cc1nc(C)c(OC(=O)/N=C(\N)c2ccc(CC3NCCn4c3nc3cc(C5(C(=O)N6CCCC6)CCCC5)ccc34)cc2)nc1C (stereo unspecified) | 1.95
